Publication PMC3466212, “Novel AChE Inhibitors for Sustainable Insecticide Resistance Management” (PLoS ONE, 2012)
Where two headings read alike, the source gives them in different places.

Assays:
[1] = tested on: C. pipiens SR strain larvae; test: Larval bioassay, SR strain (OP-resistant); settings: for LD50 SR: C. pipiens OP-resistant ace-1 R/R larvae; for Mortality at 300 µM, SR: fourth-instar larvae, 24 hours exposure
Source text: (§1) Three C. pipiens strains were used: the susceptible reference Slab strain, homozygous for ace-1 ^S [39], the resistant reference SR strain, carrying the genetical background of Slab but homozygous for the G119S mutation, allele ace-1 ^R [21] and the Ducos strain, carrying the genetical background of Slab but homozygous for an ace-1 duplication, with one ace-1^S and ace-1^R copy in tandem. Culex pipiens heterozygous larvae (Slab×SR) were obtained by crossing Slab males and SR females.
(§2) Insecticidal activity was determined by performing bioassays on fourth-instar larvae as described in [42]. Each compound was dissolved in ethanol. Propoxur (CX) and chlorpyrifos (OP) were used as references. For each compound, we first tested mortality after a 24-hour exposure at 300 µM. […] Mortality data were analyzed by the log-probit program.

[2] = tested on: C. pipiens F1 (SR×Slab) heterozygous larvae; test: Larval bioassay, heterozygous F1 (SR×Slab); format: in vivo, Culex pipiens; settings: C. pipiens heterozygous ace-1 R/ace-1 S larvae
Source text: as §1, with “females. Two A. gambiae reference strains (S molecular form) were used: the susceptible strain Kisumu, homozygous for ace-1 ^S, collected in Kenya in 1953 and maintained since then under laboratory conditions and the resistant Acerkis strain, carrying the genetical background of Kisumu but homozygous for an ace-1^R allele from a population collected in Bobo-Dioulasso, Burkina Faso [41].” for “females.”
as §2, with “program. This program takes into account natural mortality and provides lethal doses (LD) and slopes for each mortality line; it also computes resistance ratios (RR) for each LD, with 95% confidence intervals.” for “program.”

[3] = tested on: A. gambiae Kisumu strain larvae; test: Larval bioassay, Kisumu strain (OP-susceptible); format: in vivo, Anopheles gambiae; settings: A. gambiae OP-susceptible ace-1 S/S larvae
Source text: as §1, with “females. Two A. gambiae reference strains (S molecular form) were used: the susceptible strain Kisumu, homozygous for ace-1 ^S, collected in Kenya in 1953 and maintained since then under laboratory conditions and the resistant Acerkis strain, carrying the genetical background of Kisumu but homozygous for an ace-1^R allele from a population collected in Bobo-Dioulasso, Burkina Faso [41].” for “females.”
as §2, with “program. This program takes into account natural mortality and provides lethal doses (LD) and slopes for each mortality line; it also computes resistance ratios (RR) for each LD, with 95% confidence intervals.” for “program.”

[4] = tested on: A. gambiae Acerkis strain larvae; test: Larval bioassay, Acerkis strain (OP-resistant); format: in vivo, Anopheles gambiae; settings: A. gambiae OP-resistant ace-1 R/R larvae
Source text: as §1, with “females. Two A. gambiae reference strains (S molecular form) were used: the susceptible strain Kisumu, homozygous for ace-1 ^S, collected in Kenya in 1953 and maintained since then under laboratory conditions and the resistant Acerkis strain, carrying the genetical background of Kisumu but homozygous for an ace-1^R allele from a population collected in Bobo-Dioulasso, Burkina Faso [41].” for “females.”
as §2, with “program. This program takes into account natural mortality and provides lethal doses (LD) and slopes for each mortality line; it also computes resistance ratios (RR) for each LD, with 95% confidence intervals.” for “program.”

G119S AChE1 [5] = target: T1, G119S AChE1 (Culex pipiens, UniProt Q86GC8, G247S); test: biochemical; format: biochemical
T1 construct: made in house; host or cells: Drosophila S2 cells
Experimental: Production of C. pipiens WT and mutated AChE1s in Drosophila S2 cells was already described. The chemical library (ChemBridge, 3,000 compounds) screening was performed in duplicate on G119S recombinant AChE1. Chemicals were made soluble in ethanol or dimethylsulphoxide (DMSO), and then diluted at 300 µM in ethanol for storage. […] PTF analogs were analyzed in dose-response experiments (10-fold serial dilutions from 3 mM to 30 nM), using recombinant WT and G119S AChE1 or mosquito head extracts (heads cut from frozen mosquitoes, homogenized in 400 µl PB containing 1% Triton X-100 and cleared by centrifugation at 9,000×g for 3 min). Depending on compound availability, two to five replicates were performed with distinct batches of enzyme. […] IC50 was estimated by nonlinear least square regression. IC50 was also measured on AChE1 from susceptible and resistant mosquito larvae extracts.

WT AChE1 [6] = target: T2, WT AChE1 (Culex pipiens, UniProt Q86GC8); test: AChE assay (Ellman), dose-response on recombinant WT AChE1; format: biochemical; parameters: made in house; host or cells: Drosophila S2 cells
Experimental: (§3) Production of C. pipiens WT and mutated AChE1s in Drosophila S2 cells was already described. The chemical library (ChemBridge, 3,000 compounds) screening was performed in duplicate on G119S recombinant AChE1. Chemicals were made soluble in ethanol or dimethylsulphoxide (DMSO), and then diluted at 300 µM in ethanol for storage. Compounds (30 µM final concentration) were incubated for 15 min at room temperature with 100 µl of G119S recombinant AChE1 then 100 µl of substrate (acetylthiocholine, 1.6 mM, Sigma-Aldrich) was added and the residual activity was quantified by measuring the optical density at 412 nm, as described by Ellman et al.. PTF analogs were analyzed in dose-response experiments (10-fold serial dilutions from 3 mM to 30 nM), using recombinant WT and G119S AChE1 or mosquito head extracts (heads cut from frozen mosquitoes, homogenized in 400 µl PB containing 1% Triton X-100 and cleared by centrifugation at 9,000×g for 3 min). Depending on compound availability, two to five replicates were performed with distinct batches of enzyme. […] IC50 was estimated by nonlinear least square regression. IC50 was also measured on AChE1 from susceptible and resistant mosquito larvae extracts.

[7] = tested on: C. pipiens Slab strain larvae; test: Larval bioassay, Slab strain (OP-susceptible); settings: for LD50 Slab: C. pipiens OP-susceptible ace-1 S/S larvae, four to five replicates; for Mortality at 300 µM, Slab: fourth-instar larvae, 24 hours exposure
Source text: as §1, with “females. Two A. gambiae reference strains (S molecular form) were used: the susceptible strain Kisumu, homozygous for ace-1 ^S, collected in Kenya in 1953 and maintained since then under laboratory conditions and the resistant Acerkis strain, carrying the genetical background of Kisumu but homozygous for an ace-1^R allele from a population collected in Bobo-Dioulasso, Burkina Faso [41].” for “females.”
as §2, with “program. This program takes into account natural mortality and provides lethal doses (LD) and slopes for each mortality line; it also computes resistance ratios (RR) for each LD, with 95% confidence intervals.” for “program.”

[8] = tested on: C. pipiens Ducos strain larvae; test: Larval bioassay, Ducos strain (ace-1 duplication); format: in vivo, Culex pipiens; settings: C. pipiens OP-resistant ace-1 D (duplication) larvae
Source text: as §1, with “females. Two A. gambiae reference strains (S molecular form) were used: the susceptible strain Kisumu, homozygous for ace-1 ^S, collected in Kenya in 1953 and maintained since then under laboratory conditions and the resistant Acerkis strain, carrying the genetical background of Kisumu but homozygous for an ace-1^R allele from a population collected in Bobo-Dioulasso, Burkina Faso [41].” for “females.”
as §2, with “program. This program takes into account natural mortality and provides lethal doses (LD) and slopes for each mortality line; it also computes resistance ratios (RR) for each LD, with 95% confidence intervals.” for “program.”

G119S AChE1 [9] = target: T1, G119S AChE1; format: biochemical; settings: dissociation constant of enzyme-inhibitor complex; five independent replicates; read-out: Kic G119S
Experimental: (§4) To identify inhibitors of G119S AChE1, we screened a 3,000-compound chemical library using an assay adapted to a microplate format, [26]. […] For simplification, these compounds will be termed from now as PTF (PyrimidineTrione Furan-substituted) and were classified depending on the substituted positions (Table S1).
Reversibility was tested using a rapid dilution procedure. Residual activity of WT (white bars) and G119S (grey bars) AChE1 were measured after 15 min incubation in presence of inhibitors (striped bars) and are expressed as percentages of control activity. […] Assays were then diluted ten times and residual activity was measured (open bars). Means and standard errors for three independent experiments are shown. (PDF) Click here for additional data file.
(§5) WT and G119S recombinant AChE1s were incubated with 0.25 mM, 0.5 mM or 1 mM inhibitor. Residual activity of G119S (A and C) and WT (B and D) AChE1 was measured in the presence of various concentrations of PTF-20 and substrates. Enzymatic activity was analyzed using the graphical method developed by Dixon, representing reciprocal rates (1/v) (A and B) or reciprocal rates multiplied by substrate concentrations ([S]/v) (C and D) as a function of inhibitor concentration. (PDF) Click here for additional data file.
(§6) Table S3. Dissociation constants (Kic) of enzyme-inhibitor complexes.
(§7) a numbers refer to Table S1
(§8) b data were measured from five independent replicates.
(§9) c competitive inhibitor reference

F290V AChE1 = target: T3, F290V AChE1 (Culex pipiens, UniProt Q86GC8, F416V); format: biochemical; settings: F290V OP-insensitive AChE1
T3 construct: made in house; host or cells: Drosophila S2 cells
Experimental: as §3, §7
(§10) b IC50 values were determined from regression analysis of log-concentrations versus

F331W AChE1 = target: T4, F331W AChE1 (Culex pipiens, UniProt Q86GC8, F457W); format: biochemical; settings: F331W OP-insensitive AChE1
T4 construct: made in house; host or cells: Drosophila S2 cells
Experimental: as §3, §7, §10

WT AChE1 [10] = target: T2, WT AChE1; settings: read-out: Kic WT; dissociation constant of enzyme-inhibitor complex; five independent replicates
Experimental: as §4, §5, §6, §7, §8, §9

[11] = recombinant OP-insensitive G119S C. pipiens AChE1, 15 min incubation, acetylthiocholine, read-out: IC50 G119S
[12] = recombinant wild-type C. pipiens AChE1, 15 min incubation, acetylthiocholine, read-out: IC50 WT

SMILES	LD50 SR [1]	mortality at 300 µM ([1]; Culex pipiens, 24 h, read-out: Mortality at 300 µM, SR)	LD50 F1 (SR×Slab) [2]	LD50 Kisumu [3]	LD50 Acerkis [4]	IC50 (G119S AChE1 [5])	IC50 (WT AChE1 [6])	LD50 Slab [7]	mortality at 300 µM ([7]; Culex pipiens, 24 h, read-out: Mortality at 300 µM, Slab)	LD50 Ducos [8]	Ki (G119S AChE1 [9])	IC50 (F290V AChE1)	IC50 (F331W AChE1)	Mortality at 300 µM, SR [1]	Ki (WT AChE1 [10])	IC50 (G119S AChE1 [5]; [11])	IC50 (WT AChE1 [6]; [12])	Mortality at 300 µM, Slab [7]
CNC(=O)Oc1ccccc1OC(C)C [Propoxur, reference compound]	2100 µM	0%	2.3 µM	0.1 µM	689.6 µM	26500 µM	0.3 µM	1.6 µM	100%	56.7 µM	–	–	–	–	–	–	–	–
Cc1cccc(N2C(=O)C(=Cc3ccc(C)o3)C(=O)NC2=S)c1 [PTF-25]	70.1 µM	–	60.0 µM	46.1 µM	12.6 µM	–	–	160.8 µM	–	130.8 µM	24.9 ± 0.6 µM	39.3 µM	31.9 µM	68%	131 ± 3.1 µM	28.6 µM	442 µM	32%
COc1ccc(N2C(=O)NC(=O)C(=Cc3ccc(C)o3)C2=O)cc1 [PTF-10]	206.0 µM	–	207.1 µM	388.3 µM	50.6 µM	–	–	300.0 µM	–	232.8 µM	64.5 ± 1.8 µM	85.9 µM	88.2 µM	87%	88.2 ± 4.2 µM	81.4 µM	592 µM	14%
Cc1ccc(C=C2C(=O)NC(=O)N(c3ccccc3)C2=O)o1 [PTF-3]	143.0 µM	–	151.3 µM	109.7 µM	86.6 µM	–	–	310.0 µM	–	162.1 µM	21.8 ± 1.9 µM	12.4 µM	17.8 µM	78%	127 ± 2.8 µM	6.2 µM	29.4 µM	43%
Cc1ccc(C=C2C(=O)NC(=O)N(c3ccc(Cl)cc3)C2=O)o1 [PTF-20]	194.0 µM	–	–	–	–	–	–	762.0 µM	–	–	5.6 ± 0.1 µM	14.5 µM	8.3 µM	94%	56.1 ± 1.8 µM	27.5 µM	330 µM	43%
CCOP(=S)(OCC)Oc1nc(Cl)c(Cl)cc1Cl [Chlorpyrifos, reference compound]	0.021 µM	–	0.0015 µM	0.00095 µM	0.6 µM	–	–	0.00019 µM	–	0.0022 µM	–	–	–	–	–	–	–	–
COc1cccc(N2C(=O)C(=Cc3ccc(C)o3)C(=O)NC2=S)c1 [PTF-29]	398.8 µM	–	105.1 µM	164.4 µM	67.7 µM	–	–	946.0 µM	–	409.0 µM	8.9 ± 2.7 µM	37.4 µM	11.2 µM	63%	17.1 ± 6.8 µM	33.5 µM	118 µM	27%
Cc1ccc(C=C2C(=O)N(C)C(=O)N(C)C2=O)o1 [PTF-39]	200.0 µM	–	110.0 µM	–	–	–	–	576.0 µM	–	201.9 µM	41.9 ± 2.3 µM	13.9 µM	8.7 µM	81%	130 ± 9.2 µM	7.6 µM	74.3 µM	29%
